Data on 16 molecules can be found in US5318972A, “Pyrimidine nucleoside derivative and antiviral agent containing the derivative as active ingredient” (priority 1990, dated 1994).

One may read the IC50 as the concentration needed to halve the response being measured. Low values mean inhibition by little substance, high ones a need for much substance.

One data set relates to host cells. Particulars: background, clinical treatment of HIV-infection; cited from earlier work.
A further data set relates to HIV. The experiment in a line: Inhibitory activity for HIV infection (prevention of death of HIV-infected MT-4 cells). The following applies: Human immunodeficiency virus 1, MT4, 120 h, 5 days incubation at 37° C., concentration preventing death of 50% of HIV-infected MT-4 cells. It counts as cell-based. As for the experimental part: (§1) In RPMI 1640 DM culture medium containing 20 mM of Hepes buffer solution, 10% fetal bovine serum and 20 µg/ml of gentamycin, 3×10^4 MT-4 cells (human T cell clone which is destroyed by the infection of HIV) were infected with HIV in an amount of 100 times as large as expected to cause 50% infection of the cells. Immediately thereafter, a predetermined amount of sample was added to the culture medium using 50 mg/ml sample solutions in dimethyl sulfoxide and the cells were cultured at 37° C.
(§2) After 5 days of incubation, the number of existing cells was counted to determine the concentration of the compound required for preventing the death of 50% of the MT-4 cells. Separately, MT-4 cells were cultured in the same way as above except that they were not infected with HIV to determine the concentration of the compound at which 50% of the MT-4 cells were destroyed.

A short description of data set [1]: Cytotoxicity to uninfected MT-4 cells. It counts as cell-based. The following applies: human, 5 days incubation at 37° C., concentration at which 50% of cells were destroyed, read-out: 50% cytotoxic concentration to MT-4 cells. The method, then: as §1, §2

As for `Cc1cn([C@H]2C[C@H](N=[N+]=[N-])[C@@H](CO)O2)c(=O)[nH]c1=O` [3'-deoxy-3'-azidothymidine], the “toxicity in the host cells” value with host cells was “considerable strong toxicity”.
In the data set on HIV, `CCc1c(Sc2ccccc2)n(COCCO)c(=S)[nH]c1=O` [Compound 1, 5-ethyl-1-[(2-hydroxyethoxy)methyl]-6-phenylthio-2-thiouracil] gave a 50% inhibitory concentration (IC50) of 0.11 µM. For the same molecule, the CC50 at 120 h in data set [1] was found to be 148 µM.
As for `CCc1c(Sc2cc(C)cc(C)c2)n(COCCO)c(=O)[nH]c1=O` [Compound 2, 6-(3,5-dimethylphenylthio)-5-ethyl-1-[(2-hydroxyethoxy)methyl]uracil], in data set [1], the CC50 at 120 h is 149 µM.
`CCc1c(Sc2cc(C)cc(C)c2)n(COCCO)c(=S)[nH]c1=O` [Compound 3, 6-(3,5-dimethylphenylthio)-5-ethyl-1-[(2-hydroxyethoxy)methyl]-2-thiouracil]: the IC50 in the data set with HIV came out at 0.0078 µM. Further, in data set [1], the CC50 at 120 h stood at 227 µM.
Taken in the same sequence, the figures for `CCc1c(Sc2cc(Cl)cc(Cl)c2)n(COCCO)c(=O)[nH]c1=O` [Compound 6, 6-(3,5-dichlorophenylthio)-5-ethyl-1-[(2-hydroxyethoxy)methyl]uracil] were 0.014 µM and 51 µM.
Taken in the same sequence, the figures for `CCc1c(Sc2cc(Cl)cc(Cl)c2)n(COCCO)c(=S)[nH]c1=O` [Compound 7, 6-(3,5-dichlorophenylthio)-5-ethyl-1-[(2-hydroxyethoxy)methyl]-2-thiouracil] were 0.043 µM and 64 µM.
`CCc1c(Cc2ccccc2)n(COCCO)c(=O)[nH]c1=O` [Compound 10, 6-benzyl-5-ethyl-1-[(2-hydroxyethoxy)methyl]uracil]: the concentration for half-maximal inhibition (IC50) in the data set with HIV was 0.35 µM. The CC50 at 120 h in data set [1] worked out at 391 µM.
In the same order, the values of `CCc1c(Cc2cc(C)cc(C)c2)n(COCCO)c(=O)[nH]c1=O` [Compound 12, 6-(3,5-dimethylbenzyl)-5-ethyl-1-[(2-hydroxyethoxy)methyl]uracil] are 0.013 µM and 280 µM.
Regarding `CC(C)c1c(Sc2ccccc2)n(COCCO)c(=S)[nH]c1=O` [Compound 20, 1-[(2-hydroxyethoxy)methyl]-6-phenylthio-5-isopropyl-2-thiouracil], in the data set with HIV, inhibition was half-maximal at 0.059 µM (IC50). For the same molecule, the CC50 at 120 h in data set [1] came out at 400 µM.
Consider `Cc1cc(C)cc(Sc2c(C(C)C)c(=O)[nH]c(=O)n2COCCO)c1` [Compound 21, 6-(3,5-dimethylphenylthio)-1-[(2-hydroxyethoxy)methyl]-5-isopropyluracil], for which the CC50 at 120 h in data set [1] stood at 128 µM.
`Cc1cc(C)cc(Sc2c(C(C)C)c(=O)[nH]c(=S)n2COCCO)c1` [Compound 22, 6-(3,5-dimethylphenylthio)-1-[(2-hydroxyethoxy)methyl]-5-isopropyl-2-thiouracil] returned an IC50 with HIV of 0.0045 µM. The CC50 at 120 h in data set [1] is 48 µM.
In the same order, the values of `Cc1cc(C)cc(Cc2c(C(C)C)c(=O)[nH]c(=O)n2COCCO)c1` [Compound 31, 6-(3,5-dimethylbenzyl)-1-[(2-hydroxyethoxy)methyl]-5-isopropyluracil] are 0.0066 µM and 318 µM.
In turn, `CCc1c(Sc2ccccc2)n(COCCO)c(=O)[nH]c1=O` [Compound 39, 5-ethyl-1-[(2-hydroxyethoxy)methyl]-6-(phenylthio)uracil] displayed an IC50 with HIV of 0.077 µM. Moreover, the CC50 at 120 h in data set [1] was found to be 221 µM.
The molecule `CC(C)c1c(Sc2ccccc2)n(COCCO)c(=O)[nH]c1=O` [Compound 40, 1-[(2-hydroxyethoxy)methyl]-6-phenylthio-5-isopropyl-uracil] yielded an IC50 with HIV of 0.063 µM. Further, the CC50 at 120 h in data set [1] amounted to 231 µM.
For the molecule `CCCc1c(Sc2ccccc2)n(COCCO)c(=S)[nH]c1=O` [compound 3, reference compound], in the data set with HIV, half-maximal inhibition (IC50) required 3.4 µM. The CC50 at 120 h in data set [1] was 224 µM.
In the same order, the values of `CCCc1c(Sc2ccccc2)n(COCCO)c(=O)[nH]c1=O` [compound 4, reference compound] are 13 µM and 282 µM.
